Drawing on ChEMBL document CHEMBL1141835, “Sclerotigenin: A new antiinsectan benzodiazepine from the sclerotia of penicillium sclerotigenum” (1999), this text covers Activity for 1 compound.

This assay deals with Helicoverpa zea. The experiment in a line: Insecticidal activity against first instar larvae of Helicoverpa zea at 200 ppm administered with diet relative to control. The format is functional.

Compound `O=C1NCc2nc3ccccc3c(=O)n2-c2ccccc21` [SCLEROTIGENIN] yielded an Activity of 42%.
